Legend:
[1] = target: T1, native CD81 on Raji cells (Homo sapiens, UniProt P60033); assay: Competition assay: inhibition of FITC-labeled JS-81 anti-CD81 antibody binding to native CD81 on live Raji cells (flow cytometry); format: cell-based
T1 construct: endogenous in cells; host or cells: Raji (human B cell line)
T1 sequence (P60033 1-236): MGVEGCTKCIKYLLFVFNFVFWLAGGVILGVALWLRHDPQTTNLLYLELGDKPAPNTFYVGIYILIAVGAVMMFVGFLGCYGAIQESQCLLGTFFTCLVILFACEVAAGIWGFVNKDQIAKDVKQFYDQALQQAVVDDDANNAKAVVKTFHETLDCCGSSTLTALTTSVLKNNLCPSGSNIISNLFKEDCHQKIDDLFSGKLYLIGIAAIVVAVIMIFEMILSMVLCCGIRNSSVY
Description: A subset of these ligands and some of those listed in the patent have been tested to identify those ligands that bind to the correct region of the CD81 protein and for binding to native CD81 on living cells (a Raji cell line). This assay tests three concentrations of the ligand to determine if the ligand is capable of inhibiting the binding of an antibody called JS-81. This antibody is known to bind to the region of the CD81 protein we have targeted. If the ligand decreases JS-81 binding as you increase the concentration of the ligand, it is 1) binding to native CD81 on the Raji cells and 2) it is binding to the correct region of the protein.
For antibody neutralization assay Raji cells were used, a human B cell line that expressed high amounts of CD81 on the surface (data not shown). Cells were grown in RPMI medium (10% FCS, 1% penicillin/streptomycin, 1% L-glutamine, 1% non-essential amino acids, 1% sodium pyruvate, pH 7.4, at 37° C. with 5% CO2). 2×10^5 cells were incubated with or without different concentrations (50 μM, 100 μM, 400 μM and 1 mM) of indicated inhibitor for 20 min at room temperature, subsequently 1 ul (16 ng/μl) of FITC-labeled anti CD81 antibody (BD Pharmingen, 551108) was added to the cells and incubated for 20 min (antibody titration was performed to obtain a working dilution range, data not shown). Cells were washed and analyzed by flow cytometry using fluorescence-activated cell sorting (FACS) (BD FACSCalibur, software: Cell Quest Pro). Mean Fluorescence Intensity MFI was calculated using Flowjo software (TreesStar, www.flowjo.com).

recombinant CD81-LEL = target: T2, recombinant CD81-LEL (Homo sapiens, UniProt P60033); assay: SPR (Biacore T100) binding of additional ligands to immobilized CD81-LEL (Example 6); conditions: Table E, ligand 200 uM in PBS-1% DMSO
T2 construct: the large extracellular loop of CD81 (CD81-LEL); GST; His; Shoshana Levy Lab, Stanford (gift)
T2 sequence (P60033 113-201 limits assumed): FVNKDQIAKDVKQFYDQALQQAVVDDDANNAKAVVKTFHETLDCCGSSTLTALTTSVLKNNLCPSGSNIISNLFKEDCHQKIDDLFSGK
Experimental: SPR analysis was performed using a Biacore T100 workstation (GE Healthcare, NJ, USA). A recombinant form of the CD81-LEL protein with a GST-tag (Shoshana Levy Lab-Stanford) was used to determine the binding affinities of the ligands in the above list. 10 uM CD81-LEL-His diluted into 10 mM sodium acetate buffer pH 4.5 was immobilized for […] at a flow speed of 5 ul/min onto a CM5 sensor chip using amine coupling (EDC-NHS). Approximately 20,000 RU of protein were immobilized on the chip. The ligands were prepared as 200 uM solutions in PBS-1% DMSO (the running buffer) and they were introduced to the protein using a pre-programmed 3 min association and 1 min dissociation interval. Ligands that bind have a positive RU (response units) number and the strength of binding to the CD81 protein is related to the magnitude of the RU number; the larger the number the more binding.

Row | SMILES | Binding (RU) (recombinant CD81-LEL) | further results
1 | c1cncc(C2CCCCN2)c1 (stereo not drawn) [Ligand 87504] | 57.9 | Inhibition of JS-81 Binding (%) ([1]; 50 μM ligand): 0%; Inhibition of JS-81 Binding (%) ([1]; 100 μM ligand): 6%; Inhibition of JS-81 Binding (%) ([1]; 400 μM ligand): 20%
2 | O=c1[nH]c2ccccc2n1C1=CCNCC1 [Ligand 88883] | 5.4 | 
3 | O=C(O)CCc1cccnc1 [Ligand 89720] | 9.2 | 
4 | Cc1cc(C)c(N)c(C(=O)O)c1 [Ligand 90444] | 13.1 | Inhibition of JS-81 Binding (%) ([1]; 50 μM ligand): 0%; Inhibition of JS-81 Binding (%) ([1]; 100 μM ligand): 0%; Inhibition of JS-81 Binding (%) ([1]; 400 μM ligand): 24%
5 | O=C(O)C(Cc1ccccc1-c1ccccc1)C(=O)O [Ligand 94914] | 7.2 | 
6 | CCCCNCC1CCCO1 (stereo not drawn) [Ligand 97538] | 4.2 | 
7 | O=C(O)c1cc(O)ccc1/N=N/c1ccccc1 [Ligand 106863] | 11.6 | Inhibition of JS-81 Binding (%) ([1]; 50 μM ligand): 0%; Inhibition of JS-81 Binding (%) ([1]; 100 μM ligand): 0%; Inhibition of JS-81 Binding (%) ([1]; 400 μM ligand): 19%
8 | NC(=O)NC(=O)c1nccnc1C(=O)O [Ligand 117922] | 10.2 | Inhibition of JS-81 Binding (%) ([1]; 50 μM ligand): 0%; Inhibition of JS-81 Binding (%) ([1]; 100 μM ligand): 12%; Inhibition of JS-81 Binding (%) ([1]; 400 μM ligand): 26%
9 | O=C(O)c1ccc(OCCOc2ccccc2)cc1 [Ligand 120631] | 8.3 | 
10 | NS(=O)(=O)c1ccc(/N=N/c2c(O)c(C(=O)O)cc3ccccc23)cc1 [Ligand 134137] | 10 | Inhibition of JS-81 Binding (%) ([1]; 50 μM ligand): 0%; Inhibition of JS-81 Binding (%) ([1]; 100 μM ligand): 6%; Inhibition of JS-81 Binding (%) ([1]; 400 μM ligand): 26%
11 | CCNc1nc(Cl)nc(-c2cn(-c3ccccc3)c3ccccc23)n1 [Ligand 142446] | 2.5 | 
12 | O=C(O)/C=C\C(=O)Nc1cccc2cccnc12 [Ligand 144958] | 4.1 | Inhibition of JS-81 Binding (%) ([1]; 50 μM ligand): 0%; Inhibition of JS-81 Binding (%) ([1]; 100 μM ligand): 54%; Inhibition of JS-81 Binding (%) ([1]; 400 μM ligand): 12%
13 | CC1=CC(=O)CC(C)(C)C1(O)/C=C/C(C)=C/C(=O)O (stereo not drawn) [Ligand 148832] | 2.9 | 
14 | COc1cc(/N=N/c2ccccc2C(=O)O)ccc1O [Ligand 153172] | 2.6 | 
15 | Cc1ccc(C)c(C(=O)CCC(=O)O)c1 [Ligand 215276] | 7.4 | 
16 | Cc1cc(N2CCN(C)CC2)n2nc(-c3ccc(Cl)cc3)nc2n1 [Ligand 252359] | 9.3 | 
17 | CCOc1cccc2cc(C(N)=O)c(=N)oc12 [Ligand 263636] | 3.4 | 
18 | O=C(O)c1ccccc1NCc1ccco1 [Ligand 331931] | 5.9 | 
19 | N=C(N)NC(=S)Nc1ccc(Cl)cc1 [Ligand 403374] | 12.6 | 
20 | CCCCCCC(C)OC(=O)c1ccccc1C(=O)O (stereo not drawn) [Ligand 524615] | 4.1 | 
21 | O=C(Nc1ccc(Br)c2ccccc12)c1ccc2ccccc2c1O [Ligand 601359] | 4.1 | 
22 | NC(=O)c1ccc2c(c1)S(=O)(=O)c1ccccc1C2=O [Ligand 689002, 9-Oxo-9H-thioxanthene-3-carboxamide 10,10-dioxide] |  | inhibition at 50 µM ([1]; 50 μM ligand): 0%; inhibition at 100 µM ([1]; 100 μM ligand): 0%; inhibition at 400 µM ([1]; 400 μM ligand): 14%
